Here are results for three compounds from paper PMC8016363, “Discovery of a Remarkable Methyl Shift Effect in the Vanilloid Activity of Triterpene Amides” (Journal of Natural Products, 2020).

Assay [1] deals with T1, recombinant human TRPV1 (hTRPV1) (Homo sapiens, UniProt Q8NER1). Put plainly: TRPV1 channel assay: intracellular Ca2+ elevation (Fluo-4) in HEK-293 cells overexpressing hTRPV1. The class given is cell-based. Details: expressed in transfected cells; host or cells: HEK-293 cells, stably transfected, selected with Geneticin.
Assay [2] addresses T1, recombinant human TRPV1 (hTRPV1). Details: expressed in transfected cells; method as in PMID 23932918, PMID 30496739. The note with it: previously reported; cited from earlier work.

T1 sequence (Q8NER1 whole entry): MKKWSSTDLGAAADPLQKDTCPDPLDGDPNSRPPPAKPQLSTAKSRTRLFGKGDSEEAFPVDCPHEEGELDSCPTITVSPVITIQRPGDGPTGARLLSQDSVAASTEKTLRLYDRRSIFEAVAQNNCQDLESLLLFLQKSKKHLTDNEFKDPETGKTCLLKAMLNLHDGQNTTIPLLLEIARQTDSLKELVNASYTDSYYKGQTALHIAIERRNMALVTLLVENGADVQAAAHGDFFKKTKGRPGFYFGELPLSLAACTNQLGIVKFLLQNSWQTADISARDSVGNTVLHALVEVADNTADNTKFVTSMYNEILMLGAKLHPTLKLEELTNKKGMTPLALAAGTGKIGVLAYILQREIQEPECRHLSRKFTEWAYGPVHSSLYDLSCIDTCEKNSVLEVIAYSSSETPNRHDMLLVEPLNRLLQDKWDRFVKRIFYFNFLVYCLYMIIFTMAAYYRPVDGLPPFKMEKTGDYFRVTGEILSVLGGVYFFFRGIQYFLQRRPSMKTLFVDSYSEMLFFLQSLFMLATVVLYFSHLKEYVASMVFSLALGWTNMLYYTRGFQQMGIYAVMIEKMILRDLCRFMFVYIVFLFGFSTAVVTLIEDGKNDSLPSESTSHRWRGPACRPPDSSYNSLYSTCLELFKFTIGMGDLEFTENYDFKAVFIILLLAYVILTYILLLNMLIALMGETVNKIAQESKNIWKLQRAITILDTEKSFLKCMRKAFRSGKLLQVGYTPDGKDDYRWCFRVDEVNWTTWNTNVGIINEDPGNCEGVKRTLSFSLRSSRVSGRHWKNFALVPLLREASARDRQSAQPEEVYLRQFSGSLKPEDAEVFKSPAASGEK

For orientation: EC50 means the concentration that produces a half-maximal response. As a reminder, the IC50 is the concentration that gives 50% inhibition. Turning to `COc1cc(CNC(=O)[C@]23CC[C@@H](C)[C@H](C)[C@H]2C2=CC[C@@H]4[C@@]5(C)CC[C@H](O)C(C)(C)[C@@H]5CC[C@@]4(C)[C@]2(C)CC3)ccc1O` [3b, Ursoloyl vanillamide], the “efficacy (relative to ionomycin 4 μM)” value in assay [1] (HEK-293 cells stably transfected with hTRPV1, [Ca2+]i increase normalized to the response to ionomycin 4 μM) came out at 16 ± 1. For the same compound, the EC50 in assay [1] (HEK-293 cells stably transfected with hTRPV1, half-maximal increase in [Ca2+]i, read-out: potency EC50) was 5.4 ± 2.3 µM. Besides, in assay [1] (read-out: IC50 (capsaicin 0.1 μM), HEK-293-hTRPV1, compound added 5 min before capsaicin 100 nM, capsaicin alone = 100%), the concentration for half-maximal inhibition (IC50) came out at 7.5 ± 0.7 µM.
As usually defined, the inhibition is the percentage by which the read-out fell short of the control. `CC1(C)CC[C@]2(C(=O)O)CC[C@]3(C)C(=CC[C@@H]4[C@@]5(C)CC[C@H](O)C(C)(C)[C@@H]5CC[C@]43C)[C@@H]2C1` [2a, oleanolic acid]: the inhibition at 25 µM in assay [1] (HEK293, read-out: inhibition of the capsaicin response) stood at 20 ± 3%. Also, the “behaviour at TRPV1 (in words)” value in assay [2] was “weak antagonists”.
In the case of `C[C@H]1[C@H](C)CC[C@]2(C(=O)O)CC[C@]3(C)C(=CC[C@@H]4[C@@]5(C)CC[C@H](O)C(C)(C)[C@@H]5CC[C@]43C)[C@H]12` [3a, ursolic acid], the “behaviour at TRPV1 (in words)” value in assay [2] was “weak antagonists”.
